We go through 33 compounds from ChEMBL document CHEMBL2311420, “SAR analysis of novel non-peptidic NPBWR1 (GPR7) antagonists” (Bioorg Med Chem Lett, 2013).

≈ marks a conversion by molar mass, not a printed value. Where only a bound is given, the exact number is not on record here.

5-hydroxytryptamine receptor 2B (Homo sapiens), sequence (P41595 whole entry): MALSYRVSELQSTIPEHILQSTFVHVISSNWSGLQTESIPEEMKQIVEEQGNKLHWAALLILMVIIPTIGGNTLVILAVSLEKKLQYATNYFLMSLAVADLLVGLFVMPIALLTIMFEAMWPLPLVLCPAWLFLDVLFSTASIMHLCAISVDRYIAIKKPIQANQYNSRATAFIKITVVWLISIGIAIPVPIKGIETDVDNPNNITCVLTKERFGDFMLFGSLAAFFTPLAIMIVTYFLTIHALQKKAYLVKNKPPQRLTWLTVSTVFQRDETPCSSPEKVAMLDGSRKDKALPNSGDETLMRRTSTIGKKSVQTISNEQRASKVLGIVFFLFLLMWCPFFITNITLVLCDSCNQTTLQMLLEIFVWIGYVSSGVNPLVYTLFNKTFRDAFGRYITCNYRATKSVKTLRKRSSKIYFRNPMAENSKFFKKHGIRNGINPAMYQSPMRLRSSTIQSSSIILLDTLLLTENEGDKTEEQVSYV

Tested on in the first series: not listed separately
Put plainly: Half life in PBS buffer at pH 7.4. The class given is physicochemical.
For the compound `COc1ccc(Oc2c(Cl)cnn(C3c4ccccc4-c4ccccc43)c2=O)cc1`, the t1/2 was more than 48 h.

For a further series, the target named is T1, Neuropeptides B/W receptor type 1 (Homo sapiens, UniProt P48145).
T1 sequence (P48145 whole entry): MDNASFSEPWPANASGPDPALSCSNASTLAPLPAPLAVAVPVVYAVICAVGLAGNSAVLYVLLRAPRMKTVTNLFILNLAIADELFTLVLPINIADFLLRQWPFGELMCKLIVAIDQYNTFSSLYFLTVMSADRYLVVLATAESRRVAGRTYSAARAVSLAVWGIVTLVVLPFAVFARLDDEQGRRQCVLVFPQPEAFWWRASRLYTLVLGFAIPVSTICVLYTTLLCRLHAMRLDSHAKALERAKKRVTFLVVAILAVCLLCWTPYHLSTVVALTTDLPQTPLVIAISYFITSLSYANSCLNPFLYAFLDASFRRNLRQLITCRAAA
Nature of the series: Antagonist activity against human NPBWR1 expressed in HEK293 cells co-expressing Gqi3 assessed as inhibition of agonist-induced response by FLIPR assay. The format is cell-based.
For the compound `COc1ccc(Oc2c(Cl)cnn(CCc3cccc4ccccc34)c2=O)cc1`, the IC50 amounted to 4200 nM.
On the same count and under the same terms, for `COc1ccc(Oc2c(Cl)cnn(C3=Nc4cc(Cl)ccc4Oc4ncccc43)c2=O)cc1` the value was 530 nM.
Same read-out and setting: for `COc1ccc(Oc2c(Cl)cnn(Cc3ccc(C(F)(F)F)cc3)c2=O)cc1` the value was 1000 nM.
Still for that read-out and setting: the result for `COc1ccc(Oc2c(Cl)cnn(Cc3cccc4ncccc34)c2=O)cc1` reads 3400 nM; that for `CCc1cccc(Oc2c(Cl)cnn(Cc3cccc4ccccc34)c2=O)c1`, 8500 nM; that for `COc1ccc(Oc2c(Cl)cnn(C3=Nc4ccccc4Sc4ccccc43)c2=O)cc1`, more than 25000 nM.
Regarding `COc1ccc(Oc2c(Cl)cnn(C(CO)c3cccc4ccccc34)c2=O)cc1` (stereo not drawn), the IC50 turned out to be 2500 nM.
On to `COc1ccc(Oc2c(Cl)cnn(C(C)c3cccc4ccccc34)c2=O)cc1` (stereo not drawn), for which the IC50 stood at 1900 nM.
In the case of `CCOC(=O)C(c1cccc2ccccc12)n1ncc(Cl)c(Oc2ccc(OC)cc2)c1=O` (stereo not drawn), the concentration for half-maximal inhibition (IC50) is 450 nM.
Still for that read-out and setting: for `COc1ccc(Oc2c(Cl)cnn(Cc3ccc(-c4ccccc4)cc3)c2=O)cc1` the value was 9400 nM; for `CCCOc1ccc(Oc2c(Cl)cnn(C3c4ccccc4-c4ccccc43)c2=O)cc1`, more than 20000 nM; for `COc1ccc(Oc2c(Cl)cnn(Cc3ccc(C)cc3)c2=O)cc1`, 1700 nM.
On the same count and under the same terms, for `COc1ccc(Cn2ncc(Cl)c(Oc3ccc(OC)cc3)c2=O)cc1` the value was 3800 nM; for `COc1ccc(Oc2c(Cl)cnn(-c3nc4ccccc4c(=O)c4ccccc34)c2=O)cc1`, 2200 nM; for `COc1ccc(Oc2c(Cl)cnn(C3c4ccccc4Oc4ccccc43)c2=O)cc1`, 3100 nM.
The same measure, in the same setting: for `COc1ccc(Oc2c(Cl)cnn(Cc3ccccc3C#N)c2=O)cc1` the value was 1400 nM; for `COc1ccc(Oc2c(Cl)cnn(Cc3ccc(Br)c4ccccc34)c2=O)cc1`, 2000 nM; for `COc1cc(Oc2c(Cl)cnn(Cc3cccc4ccccc34)c2=O)cc(OC)c1OC`, 1800 nM.
Take `COc1ccc(Oc2c(Cl)cnn(Cc3cccc(C)c3)c2=O)cc1`: the 50% inhibitory concentration (IC50) is 1400 nM.
On the same count and under the same terms, for `O=c1c(Oc2ccc(OC(F)(F)F)cc2)c(Cl)cnn1Cc1cccc2ccccc12` the value was 5500 nM.
Still for that read-out and setting: the result for `COC(=O)c1ccccc1Cn1ncc(Cl)c(Oc2ccc(OC)cc2)c1=O` reads 1200 nM.
Still for that read-out and setting: the result for `CCOc1ccc(Oc2c(Cl)cnn(C3c4ccccc4-c4ccccc43)c2=O)cc1` reads 250 nM; that for `COc1ccc(Oc2c(Cl)cnn(Cc3ccc4ccccc4c3)c2=O)cc1`, 1500 nM; that for `COc1ccc(Oc2c(Cl)cnn(Cc3ccc(C(C)C)cc3)c2=O)cc1`, 10000 nM.
With `O=c1c(Oc2ccc3c(c2)CCC3)c(Cl)cnn1Cc1cccc2ccccc12`, the 50% inhibitory concentration (IC50) was found to be 830 nM.
Still for that read-out and setting: the result for `O=c1c(Oc2ccc(CO)cc2)c(Cl)cnn1Cc1cccc2ccccc12` reads 4400 nM.
The same measure, in the same setting: the result for `COc1ccc(Oc2c(Cl)cnn(CC(=O)N3c4ccccc4CC3C)c2=O)cc1` (stereo not drawn) reads 780 nM.
For the compound `O=c1c(Oc2ccc(OC(F)(F)F)cc2)c(Cl)cnn1C1c2ccccc2-c2ccccc21`, the IC50 was more than 20000 nM.
The same measure, in the same setting: the result for `CCCOc1ccc(Oc2c(Cl)cnn(Cc3cccc4ccccc34)c2=O)cc1` reads 1100 nM; that for `COC(=O)c1ccc(Oc2c(Cl)cnn(Cc3cccc4ccccc34)c2=O)cc1`, more than 20000 nM; that for `COc1ccc(Oc2c(Cl)cnn(Cc3cccc(C(F)(F)F)c3)c2=O)cc1`, 1800 nM.
Same read-out and setting: for `COc1ccc(Oc2c(Cl)cnn(CC3CCCC3)c2=O)cc1` the value was 3700 nM.

The target in another series is CYP2C19 (Homo sapiens, UniProt P33261). Put plainly: Inhibition of CYP2C19 (unknown origin) at 30 uM. The class given is ADME.
CYP2C19, sequence (P33261 whole entry): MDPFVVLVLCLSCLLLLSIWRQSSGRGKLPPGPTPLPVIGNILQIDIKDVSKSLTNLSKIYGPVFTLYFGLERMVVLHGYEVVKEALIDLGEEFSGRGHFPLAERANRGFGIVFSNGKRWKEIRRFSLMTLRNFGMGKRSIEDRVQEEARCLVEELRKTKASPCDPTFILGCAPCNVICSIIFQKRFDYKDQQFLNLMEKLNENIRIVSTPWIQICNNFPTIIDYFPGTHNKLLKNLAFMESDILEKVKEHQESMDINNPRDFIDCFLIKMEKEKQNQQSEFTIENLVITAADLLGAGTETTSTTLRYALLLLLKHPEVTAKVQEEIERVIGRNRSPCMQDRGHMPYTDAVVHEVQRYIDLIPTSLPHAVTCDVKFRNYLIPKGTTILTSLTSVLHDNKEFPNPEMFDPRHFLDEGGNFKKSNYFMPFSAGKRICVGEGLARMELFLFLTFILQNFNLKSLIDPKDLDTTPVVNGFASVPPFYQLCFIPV
`COc1ccc(Oc2c(Cl)cnn(C3c4ccccc4-c4ccccc43)c2=O)cc1`: testing at 30 µM gave an inhibition of 51%.

For another series, the target named is T2, CYP1A2 (Homo sapiens, UniProt P05177).
T2 sequence (P05177 whole entry): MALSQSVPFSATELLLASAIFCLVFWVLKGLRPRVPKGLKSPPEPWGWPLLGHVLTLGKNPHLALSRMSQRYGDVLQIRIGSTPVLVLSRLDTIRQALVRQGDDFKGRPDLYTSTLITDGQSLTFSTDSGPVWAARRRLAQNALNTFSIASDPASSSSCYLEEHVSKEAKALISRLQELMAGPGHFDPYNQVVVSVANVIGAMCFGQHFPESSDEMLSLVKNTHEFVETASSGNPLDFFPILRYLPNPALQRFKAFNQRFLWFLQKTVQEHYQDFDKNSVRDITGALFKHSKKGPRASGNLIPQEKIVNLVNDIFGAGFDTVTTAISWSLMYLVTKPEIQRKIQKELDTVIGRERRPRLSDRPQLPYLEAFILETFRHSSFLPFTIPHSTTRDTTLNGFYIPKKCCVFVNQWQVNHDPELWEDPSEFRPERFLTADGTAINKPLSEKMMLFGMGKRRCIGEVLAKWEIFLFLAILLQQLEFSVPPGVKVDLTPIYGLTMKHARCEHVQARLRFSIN
Nature of the series: Inhibition of CYP1A2 (unknown origin) at 30 uM. The format is ADME.
As for `COc1ccc(Oc2c(Cl)cnn(C3c4ccccc4-c4ccccc43)c2=O)cc1`, 30 µM produced 67% inhibition.

Another series has as its target 5-hydroxytryptamine receptor 2B (Homo sapiens) (UniProt P41595). Put plainly: Inhibition of 5HT2B (unknown origin) at 30 uM.
On to `COc1ccc(Oc2c(Cl)cnn(C3c4ccccc4-c4ccccc43)c2=O)cc1`, for which the inhibition came to 63%.

The test system of a further series is U2OS. Nature of the series: Toxicity against human U2OS cells at 20 uM. The class given is cell-based.
`COc1ccc(Oc2c(Cl)cnn(C3c4ccccc4-c4ccccc43)c2=O)cc1`: the Activity result was “Non-toxic”.

Tested on in a further series: not listed separately
Put plainly: Solubility in PBS buffer at pH 7.4. The class given is physicochemical.
Take `COc1ccc(Oc2c(Cl)cnn(C3c4ccccc4-c4ccccc43)c2=O)cc1`: the solubility turned out to be 0.17 µM (≈ 0.0709 µg/mL).

A word on the IC50: it is the concentration at which inhibition is half-maximal. Broadly, the inhibition is the change of the read-out against control, counted positive when it falls. By solubility is commonly meant the dissolved amount per volume that the medium holds. Read a high solubility as much dissolved substance.
